Source: patent US7560466B2, “Methods of treating or preventing autoimmune diseases with 2,4-pyrimidinediamine compounds” (Rigel Pharmaceuticals, Inc., priority 2003, dated 2009)
Read-outs that look alike come from different tables or passages of the source.

Key:
Syk kinase = molecular target: T1, Syk kinase (Homo sapiens, UniProt P43405); assay: Syk kinase biochemical fluorescence polarization assay; settings: isolated Syk kinase, read-out: fp_syk, 11pt
T1 construct: purchased Upstate, Lake Placid N.Y
Method: Many of the 2,4-pyrimidinediamine compounds were tested for the ability to inhibit Syk kinase catalyzed phosphorylation of a peptide substrate in a biochemical fluorescenced polarization assay with isolated Syk kinase. In this experiment, Compounds were diluted to 1% DMSO in kinase buffer (20 mM HEPES, pH 7.4, 5 mM MgCl2, 2 mM MnCl2, 1 mM DTT, 0.1 mg/mL acetylated Bovine Gamma Globulin). Compound in 1% DMSO (0.2% DMSO final) was mixed with ATP/substrate solution at room temperature. Syk kinase (Upstate, Lake Placid N.Y.) was added to a final reaction volume of 20 uL, and the reaction was incubated for 30 minutes at room temperature. […] EDTA (10 mM final)/anti-phosphotyrosine antibody (1× final)/fluorescent phosphopeptide tracer (0.5× final) was added in FP Dilution Buffer to stop the reaction for a total volume of 40 uL according to manufacturer's instructions (PanVera Corporation) The plate was incubated for 30 minutes in the dark at room temperature. Plates were read on a Polarion fluorescence polarization plate reader (Tecan). Data were converted to amount of phosphopeptide present using a calibration curve generated by competition with the phosphopeptide competitor provided in the Tyrosine Kinase Assay Kit, Green (PanVera Corporation).
In Tabe 1, all reported values are IC50s (in μM).

[1] = Plasma concentration in RPA reaction study (satellite / exposure); format: in vivo, mouse; settings: pretreatment 0.5 hrs; for concentration at 4.5 h: C57BL/6, mouse, plasma, read-out: Exposure = Pretreatment Time + 4 hours Plasma Concentration ± SEM
Method: Pretreatment time, in which the test compounds are administered prior to Ab/Ag challenge, depends on the pharmacokinetic (PK) properties of each individual compound. Four hours after induction of Arthus reaction, mice are euthanized, and tissues are harvested for assessment of edema.
All compounds tested were administered by the oral route.

[2] = system: cultured human mast cells (CHMC), IgE-induced degranulation; assay: CHMC low cell density IgE activation: tryptase assay; format: cell-based; settings: Homo sapiens, Mast cell, low cell density CHMC
Summary of the method: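 Cord-blood CD34+-derived mucosal mast cells (SCF/IL-6 medium), 1000–1500 cells/well, preincubated with compound 1 h at 37°C, then anti-IgE stimulated 30 min at 37°C.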

[3] = system: cultured human mast cells (CHMC), ionomycin-induced degranulation; assay: CHMC low cell density ionomycin activation: tryptase assay; format: cell-based; settings: Homo sapiens, Mast cell, low cell density CHMC, ionomycin activation (2 μM final), 3pt, read-out: LD Tryptase, CHMC, Iono, 3pt

Row | SMILES | IC50 (Syk kinase; 11pt) | also measured
1 | CCCCn1ncc2ccc(Nc3ncc(F)c(Nc4ccc5c(c4)NC(=O)C(C)(C)O5)n3)cc21 [Compound 716] | < 10 µM | 
2 | CC1(C)Oc2ccc(Nc3nc(Nc4ccc5c(cnn5CC5CC5)c4)ncc3F)cc2NC1=O [Compound 736] | < 10 µM | 
3 | CC1(C)Oc2ccc(Nc3nc(Nc4ccc5cnn(CC6CC6)c5c4)ncc3F)cc2NC1=O [Compound 740] | < 10 µM | 
4 | CC1(C)Oc2ccc(Nc3nc(Nc4ccc5c(cnn5C5CCCCC5)c4)ncc3F)cc2NC1=O [Compound 744] | < 10 µM | 
5 | Cc1nn(C)c2cc(Nc3ncc(F)c(Nc4ccc5c(c4)NC(=O)C(C)(C)O5)n3)ccc12 [Compound 754] | < 10 µM | 
6 | CC1(C)Oc2ccc(Nc3nc(Nc4ccc5nc(C(F)(F)F)[nH]c5c4)ncc3F)cc2NC1=O [Compound 802, N4-(2,2-Dimethyl-3-oxo-4H-benz[1,4]oxazin-6-yl)-5-fluoro-N2-(2-trifluoromethyl-1H-benzimidazol-5-yl)-2,4-pyrimidinediamine] | < 10 µM | 
7 | Cn1nc(N)c2cc(Nc3ncc(F)c(Nc4ccc5c(c4)NC(=O)C(C)(C)O5)n3)ccc21 [Compound 806, N2-(3-A mino-1-methylindazol-5-yl)-N4-(2,2-dimethyl-3-oxo-4H-benz[1,4]oxazin-6-yl)-5-fluoro-2,4-pyrimidinediamine] | < 10 µM | 
8 | Cc1nc2ccc(Nc3ncc(F)c(Nc4ccc5c(c4)NC(=O)C(C)(C)O5)n3)cc2[nH]1 [Compound 810, N4-(2,2-Dimethyl-3-oxo-4H-benz[1,4]oxazin-6-yl)-5-fluoro-N2-(2-methyl-3H-benzimidazol-5-yl)-2,4-pyrimidinediamine] | < 10 µM | 
9 | Cc1nc2ccc(Nc3ncc(F)c(Nc4ccc5c(c4)NC(=O)[C@H](C)O5)n3)cc2[nH]1 [Compound 811, (S)-5-Fluoro-N2-(2-methyl-3H-benzimidazol-5-yl)-N4-(2-methyl-3-oxo-2H,4H-benz[1,4]oxazin-6-yl)-2,4-pyrimidinediamine] | < 10 µM | 
10 | CC(=O)NCCCn1ncc2cc(Nc3ncc(F)c(Nc4ccc5c(n4)NC(=O)C(C)(C)O5)n3)ccc21 [Compound 822, N2-[1-[3-(N-Acetylamino)propyl]indazol-5-yl]-N4-(2,2-dimethyl-3-oxo-4H-5-pyrid[1,4]oxazin-6-yl)-5-fluoro-2,4-pyrimidinediamine] | < 10 µM | 
11 | Cc1nc2ccc(Nc3ncc(F)c(Nc4ccc5c(n4)NC(=O)C(C)(C)O5)n3)cc2[nH]1 [Compound 845, N4-(2,2-Dimethyl-3-oxo-4H-5-pyrid[1,4]oxazin-6-yl)-5-fluoro-N2-(2-methyl-3H-benzimidazol-5-yl)-2,4-pyrimidinediamine] | < 10 µM | 
12 | CC1(C)Oc2ccc(Nc3nc(Nc4ccc5[nH]c(C(F)(F)F)nc5c4)ncc3F)nc2NC1=O [Compound 846, N4-(2,2-Dimethyl-3-oxo-4H-5-pyrid[1,4]oxazin-6-yl)-5-fluoro-N2-(2-trifluoromethyl-1H-benzimidazol-5-yl)-2,4-pyrimidinediamine] | < 10 µM | 
13 | Cc1nc2cc(Nc3ncc(F)c(Nc4ccc5c(c4)NC(=O)[C@H](C)O5)n3)ccc2n1C [Compound 897] | < 10 µM | 
14 | Cc1nc2cc(Nc3ncc(F)c(Nc4ccc5c(n4)NC(=O)C(C)(C)O5)n3)ccc2n1C [Compound 898, N2-(1,2-Dimethylbenzimidazol-5-yl)-N4-(2,2-dimethyl-3-oxo-4H-5-pyrid[1,4]oxazin-6-yl)-5-Fluoro-2,4-pyrimidinediamine] | < 10 µM | 
15 | Cc1nc2cc(Nc3ncc(F)c(Nc4ccc5c(c4)NC(=O)C(C)(C)O5)n3)ccc2n1CCO [Compound 901] | < 10 µM | 
16 | Cc1nc2cc(Nc3ncc(F)c(Nc4ccc5c(c4)NC(=O)[C@H](C)O5)n3)ccc2n1CCO [Compound 902] | < 10 µM | 

Row | SMILES | IC50 (Syk kinase; 11pt) | also measured
17 | Cc1nc2cc(Nc3ncc(F)c(Nc4ccc5c(n4)NC(=O)C(C)(C)O5)n3)ccc2n1CCO [Compound 903, N4-(2,2-Dimethyl-3-oxo-4H-5-pyrid[1,4]oxazin-6-yl)-5-fluoro-N2-[1-(2-hydroxyethyl)-2-methylbenzimidazol-5-yl)-2,4-pyrimidinediamine] | < 10 µM | 
18 | Cc1nc2ccc(Nc3ncc(F)c(Nc4ccc5c(c4)NC(=O)C(C)S5(=O)=O)n3)cc2[nH]1 (centres unmarked) [Compound 909] | < 10 µM | 
19 | CC1C(=O)Nc2cc(Nc3nc(Nc4ccc5[nH]c(C(F)(F)F)nc5c4)ncc3F)ccc2S1(=O)=O (centres unmarked) [Compound 910, 5-Fluoro-N4-(2-methyl-1,1,3-trioxo-2H,4H-benzo[1,4]thiazin-6-yl)-N2-(2-trifluoromethyl-1H-benzimidazol-5-yl)-2,4-pyrimidinediamine] | < 10 µM | 
20 | CC1(C)Oc2ccc(Nc3nc(Nc4ccc5[nH]c(CN6CCOCC6)nc5c4)ncc3F)cc2NC1=O [Compound 961, N4-(2,2-Dimethyl-3-oxo-4H-benz[1,4]oxazin-6-yl)-5-fluoro-N2-[2-(4-morpholinomethyl)-1H-benzimidazol-5-yl]-2,4-pyrimidinediamine] | < 10 µM | 
21 | CC1(C)Oc2ccc(Nc3nc(Nc4ccc5[nH]c(CN6CCOCC6)nc5c4)ncc3F)nc2NC1=O [Compound 962, N4-(2,2-Dimethyl-3-oxo-4H-5-pyrido[1,4]oxazin-6-yl)-5-fluoro-N2-[2-(4-morpholinomethyl)-1H-benzimidazol-5-yl]-2,4-pyrimidinediamine] | < 10 µM | 
22 | CC1(C)Oc2ccc(Nc3nc(Nc4ccc5[nH]c(N6CCOCC6)nc5c4)ncc3F)cc2NC1=O [Compound 976, N4-(2,2-Dimethyl-3-oxo-4H-benz[1,4]oxazin-6-yl)-5-fluoro-N2-[2-(4-morpholino)-1H-benzimidazol-5-yl]-2,4-pyrimidinediamine] | < 10 µM | 
23 | CC1(C)Oc2ccc(Nc3nc(Nc4ccc5[nH]c(N6CCOCC6)nc5c4)ncc3F)nc2NC1=O [Compound 977, N4-(2,2-Dimethyl-3-oxo-4H-5-pyrido[1,4]oxazin-6-yl)-5-fluoro-N2-[2-(4-morpholino)-1H-benzimidazol-5-yl]-2,4-pyrimidinediamine] | < 10 µM | 
24 | COc1c(C)cc(Nc2ncc(F)c(Nc3ccc4c(n3)NC(=O)C(C)(C)O4)n2)cc1C [Compound 997, N2-(3,5-Dimethyl-4-methoxyphenyl)-N4-(2,2-dimethyl-3-oxo-4H-5-pyrid[1,4]oxazin-6-yl)-5-fluoro-2,4-pyrimidinediamine] | < 10 µM | 
25 | COc1cc(Nc2ncc(F)c(Nc3ccc4c(n3)NC(=O)C(C)(C)O4)n2)cc(OC)c1OC [Compound 1007, N4-(2,2-Dimethyl-3-oxo-4H-5-pyrid[1,4]oxazin-6-yl)-5-fluoro-N2-(3,4,5-trimethoxyphenyl)-2,4-pyrimidinediamine] |  | Exposure = Pretreatment Time + 4 hours Plasma Concentration ± SEM ([1]; 0.1 mg/kg oral): BLQ; Exposure = Pretreatment Time + 4 hours Plasma Concentration ± SEM ([1]; 0.5 mg/kg oral): BLQ; concentration at 4.5 h ([1]; 1 mg/kg oral): 2.3 ± 0.9 ng/mL; concentration at 4.5 h ([1]; 5 mg/kg oral): 19.8 ± 15.7 ng/mL
26 | CCOc1c(C)cc(Nc2ncc(F)c(Nc3ccc4c(c3)NC(=O)C(C)(C)O4)n2)cc1Cl [Compound 1008] | < 10 µM | 
27 | CC1(C)Oc2ccc(Nc3nc(Nc4ccc(-c5ncco5)cc4)ncc3F)cc2NC1=O [Compound 1011] | < 10 µM | 
28 | CC1(C)Oc2ccc(Nc3nc(Nc4cccc(-c5cnco5)c4)ncc3F)cc2NC1=O [Compound 1016] |  | IC50 (Syk kinase; 11-point): < 10 µM
29 | O=C1COc2ccc(Nc3ncc(F)c(Nc4ccc5c(c4)NC(=O)CO5)n3)cc2N1 [Compound 1083] |  | IC50 (Syk kinase; 11-point): < 10 µM
30 | COc1cc(Nc2ncc(F)c(Nc3ccc4c(n3)NCCO4)n2)cc(OC)c1OC [Compound 1145, N4-(3,4-Dihydro-2H,4H-5-pyrid[1,4]oxazin-6-yl)-5-fluoro-N2-(3,4,5-trimethoxyphenyl)-2,4-pyrimidinediamine] |  | IC50 (Syk kinase; 4 uM ATP, 11pt): < 10 µM
31 | COC(=O)CNC(=O)c1ccc(Nc2ncc(F)c(Nc3ccc4c(c3)NC(=O)C(C)(C)O4)n2)cc1 [Compound 1286] |  | IC50 ([2]; 3pt, read-out: LD Tryptase, CHMC, IgE, 3pt): < 10 µM; IC50 ([2]; 8pt, read-out: LD Tryptase, CHMC, IgE, 8pt): < 10 µM; IC50 [3]: > 10 µM; IC50 (Syk kinase; 4 uM ATP, 11pt): < 10 µM
32 | COC(=O)CCNC(=O)c1ccc(Nc2ncc(F)c(Nc3ccc4c(n3)NC(=O)C(C)(C)O4)n2)cc1 [Compound 1312, N4-(2,2-Dimethyl-3-oxo-4H-5-pyrid[1,4]oxazin-6-yl)-5-fluoro-N2-[4-[N-(2-methoxycarbonylethyl)aminocarbonyl]phenyl]-2,4-pyrimidinediamine] |  | IC50 (Syk kinase; 4 uM ATP, 11pt): < 10 µM
